Experimental data published in ChEMBL document CHEMBL1201862, “PubChem BioAssay data set” (2004).
Active and inactive are the calls of the source. Rule as the data show it: actives have a measured IC50 and inactives only a lower limit.

Molecular target: Envelope glycoprotein gp160 (Human immunodeficiency virus 1, UniProt Q6QLK5)
Test: inhibitors of HIV fusion peptide binding, primary screen, biochemical, uHTS, fluorescence dequenching (AID 1986)

Sequence of Envelope glycoprotein gp160 (Q6QLK5 whole entry, the tested form may be a part): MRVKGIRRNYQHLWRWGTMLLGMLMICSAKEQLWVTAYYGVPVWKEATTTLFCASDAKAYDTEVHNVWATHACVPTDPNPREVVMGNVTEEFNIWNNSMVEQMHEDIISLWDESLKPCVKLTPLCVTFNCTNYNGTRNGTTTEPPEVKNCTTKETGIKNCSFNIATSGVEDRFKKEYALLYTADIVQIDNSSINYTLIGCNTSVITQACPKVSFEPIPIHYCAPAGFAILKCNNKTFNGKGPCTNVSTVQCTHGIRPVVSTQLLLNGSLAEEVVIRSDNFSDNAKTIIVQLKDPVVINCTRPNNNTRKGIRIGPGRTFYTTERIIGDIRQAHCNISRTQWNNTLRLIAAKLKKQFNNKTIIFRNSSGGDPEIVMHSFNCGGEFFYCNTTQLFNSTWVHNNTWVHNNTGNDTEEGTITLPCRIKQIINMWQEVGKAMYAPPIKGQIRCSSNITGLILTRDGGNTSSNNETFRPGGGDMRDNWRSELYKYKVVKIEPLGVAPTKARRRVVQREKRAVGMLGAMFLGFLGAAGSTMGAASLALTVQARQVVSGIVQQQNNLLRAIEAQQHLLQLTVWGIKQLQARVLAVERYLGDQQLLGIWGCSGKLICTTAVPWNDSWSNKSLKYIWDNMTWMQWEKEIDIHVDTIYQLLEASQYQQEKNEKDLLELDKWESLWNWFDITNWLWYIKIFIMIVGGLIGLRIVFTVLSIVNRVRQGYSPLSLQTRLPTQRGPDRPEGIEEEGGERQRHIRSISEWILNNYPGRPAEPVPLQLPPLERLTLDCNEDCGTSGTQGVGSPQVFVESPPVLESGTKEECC

CCOc1cc(/C=C2\C(=O)N(c3cccc(C(=O)O)c3)N=C2C(F)(F)F)ccc1OCC(=O)Nc1ccccc1OC
IC50: 3.88 µM (active)

COc1ccc(-c2cc(-c3ccc(Cl)cc3)c(C#N)c(SCC(=O)O)n2)cc1
IC50: 19.4 µM (active)

O=C(NCCc1ccccc1)c1ccc2c(=O)[nH]c3c(C(=O)NCC4CCCO4)sc(=S)n3c2c1 (centres undefined)
IC50: 27.8 µM (active)

O=C(O)c1ccc(/C=N/NC(=O)c2ccc(CN3c4cccc5cccc(c45)S3(=O)=O)cc2)cc1
IC50: 19.7 µM (active)
